Results taken from article PMC9323974, “Palladium(II) Complexes of Substituted Salicylaldehydes: Synthesis, Characterization and Investigation of Their Biological Profile” (Pharmaceuticals, 2022).
Where “and” joins values, the source holds several entries; their conditions need not be identical. Identical values can stand only once. Like-named read-outs stand apart in the source and are kept apart here.

Legend:
HSA = target: T1, HSA (Homo sapiens, UniProt P02768); test: HSA fluorescence quenching; format: binding; conditions: for ΔΙ/Ιο (%) HSA fluorescence quenching: HSA 3 μM; for K HSA-binding constant: Scatchard; for relative HSA-fluorescence emission intensity, % of the initial: final value
T1 construct: purchased Sigma-Aldrich Co
Procedure: (§1) S4 Interaction with serum albumins
(§2) S4.1 Study of the affinity for serum albumins
(§3) The albumin–binding study for the compounds was carried out by fluorescence emission quenching experiments using BSA (3 μM) or HSA (3 μM) in buffer solution (15 mM trisodium citrate and 150 mM NaCl at pH 7.0). The tested compounds were used as quenchers with gradually increasing concentrations to monitor the quenching of the emission intensity of tryptophan residues of BSA at 345 nm or HSA at 340 nm [S6]. The fluorescence emission spectra were recorded between 300–500 nm with excitation wavelength of 295 nm. All the experiments were conducted at room temperature. The fluorescence spectra of the compounds were recorded under the same experimental conditions and presented a low–intensity emission band in the region 395–415 nm.
(§4) Consequently, the SA fluorescence emission spectra were modified properly, by subtracting the spectra of the compounds, and quantitative studies followed.
(§5) The extent of the inner–filter effect can be roughly estimated with the following formula: […]
(§6) where Icorr= corrected intensity, Imeas= the measured intensity, c = the concentration of the quencher, d = the cuvette length (1 cm), ε(λexc) and ε(λem) = the ε of the quencher at the excitation and the emission wavelength, respectively, as calculated from the UV –vis spectra of the complexes [S 8].
(§7) The interaction of the quencher (i.e. compounds) with serum albumins [S6] was studied through the Stern–Volmer and Scatchard equations [S6] and corresponding graphs. The values of the respective Stern–Volmer constant KSV (M–1), the quenching constant k q (M–1s–1), the SA– binding constant K (M–1) and the number of binding sites per albumin (n) were calculated.
(§8) According to Stern–Volmer quenching equation [S6] (eq. S2), where I 0 = the initial tryptophan fluorescence intensity of SA, I = the tryptophan fluorescence intensity of SA after the addition of the quencher, kq = the quenching rate constants of SA, K SV = the dynamic quenching constant, τ0 = the average lifetime of SA without the quencher, [Q] = the concentration of the quencher), the Stern –Volmer constant (KSV, M–1) can be obtained by the slope of the diagram I0/I versus [Q]. Taking τ0 = 10–8 s as fluorescence lifetime of tryptophan in SA [S2], the quenching constant (kq, M–1s–1) is calculated from equation S3.
(§9) From the Scatchard equation (eq. S5) [S6]: […]
(§10) (1 picture or pasted object on this page, not shown here) […]
(§11) where n = the number of binding sites per albumin and K = the SA–binding constant. The K constant (M−1) is calculated from the slope in plots (ΔI/I0)/[Q] versus (ΔI/I0) and n is given by the ratio of y intercept to the slope [S9]. […]

BSA [1] = target: T2, BSA (Bos taurus, UniProt P02769); test: BSA fluorescence quenching; format: binding, bovine; conditions: for ΔΙ/Ιο (%) BSA fluorescence quenching: BSA 3 μM; for K BSA-binding constant: Scatchard; for relative BSA-fluorescence emission intensity, % of the initial: final value
T2 construct: purchased Sigma-Aldrich Co
Procedure: as §1, §2, §3, §4, §5, §6, §7, §8, §9, §10, §11

[2] = system: S. aureus, B. subtilis, E. coli, X. campestris; test: MIC stated for all tested bacterial strains; format: cell-based; conditions: all tested microbes
Procedure: S2 Antibacterial activity
The antimicrobial activity of the compounds was evaluated by determining their respective MIC values towards two Gram–(–) (Escherichia coli NCTC 29212 (E. coli) and Xanthomonas campestris ATCC 1395 (X. campestris)) and two Gram–(+) (Staphylococcus aureus ATCC 6538 (S. aureus) and Bacillus subtilis ATCC 6633 (B. subtilis)) bacterial species. Cultures of these microbial strains were grown on a rich selective agar medium and stored at 4°C. The selective media used were Nutrient Agar or Broth for B. subtilis and S. aureus, Yeast Mold Agar or Broth for X. campestris and Luria Agar or Broth for E. coli. Cells picked from the surface of the stored cultures were used to initiate liquid pre–cultures of the same selective medium at an initial turbidity of roughly 1 McFarland unit. Pre–cultures were incubated for 24 h in a rotary shaking incubator and subsequently they were used to inoculate the test cultures used for the determination of MIC at an initial turbidity of 0.5 McFarland units. The test cultures consisted of Mueller –Hinton broth (Deben Diagnostics Ltd) containing different concentrations of the compounds.
Different concentrations were achieved as follows: the compounds were freshly dissolved in DMSO to a concentration of 1 mg mL–1 and they were diluted with DMSO, using the method of progressive double dilution. Therefore, working solutions with decreasing concentrations of the compounds under investigation were achieved. The working solutions were subsequently diluted to the final desired concentration by addition to the growth medium at a proportion of 2:98. MIC values were determined as the lowest concentrations of the tested compounds that inhibited visible growth of each respective organism after a 24 h incubation [ S3]. Bacterial growth was determined by measuring the turbidity of appropriately diluted cultures at 600 nm with reference to equally diluted sterile growth medium and the inhibition achieved was calculated by comparing the turbidity of each culture to the average of the turbidity of three non–inhibited cultures. All test cultures were grown in triplicates and for the determination of MIC, growth had to be inhibited in at least two cultures of the triplicate. Incubation temperature at all stages was 37°C except for X. campestris that was cultivated at 28°C [S4].

EB-DNA adduct (CT DNA) = conditions: cited from earlier work
BSA [3] = target: T2, BSA; conditions: cited from earlier work
CT DNA = conditions: cited from earlier work

T2 sequence (P02769 25-607): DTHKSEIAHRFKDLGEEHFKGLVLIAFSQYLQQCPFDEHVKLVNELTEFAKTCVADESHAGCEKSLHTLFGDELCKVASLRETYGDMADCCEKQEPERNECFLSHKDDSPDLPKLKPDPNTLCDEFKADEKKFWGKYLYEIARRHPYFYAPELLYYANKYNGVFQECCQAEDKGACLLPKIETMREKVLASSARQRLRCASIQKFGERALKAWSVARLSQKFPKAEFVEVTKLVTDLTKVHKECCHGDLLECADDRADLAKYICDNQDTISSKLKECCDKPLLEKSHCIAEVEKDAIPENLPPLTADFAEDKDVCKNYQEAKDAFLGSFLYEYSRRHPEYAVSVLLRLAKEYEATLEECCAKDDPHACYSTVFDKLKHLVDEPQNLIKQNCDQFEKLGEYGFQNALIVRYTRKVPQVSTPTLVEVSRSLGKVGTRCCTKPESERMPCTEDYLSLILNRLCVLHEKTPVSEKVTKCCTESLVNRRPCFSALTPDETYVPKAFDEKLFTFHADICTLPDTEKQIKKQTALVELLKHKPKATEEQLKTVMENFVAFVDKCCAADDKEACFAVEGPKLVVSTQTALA
T1 sequence (P02768 25-609): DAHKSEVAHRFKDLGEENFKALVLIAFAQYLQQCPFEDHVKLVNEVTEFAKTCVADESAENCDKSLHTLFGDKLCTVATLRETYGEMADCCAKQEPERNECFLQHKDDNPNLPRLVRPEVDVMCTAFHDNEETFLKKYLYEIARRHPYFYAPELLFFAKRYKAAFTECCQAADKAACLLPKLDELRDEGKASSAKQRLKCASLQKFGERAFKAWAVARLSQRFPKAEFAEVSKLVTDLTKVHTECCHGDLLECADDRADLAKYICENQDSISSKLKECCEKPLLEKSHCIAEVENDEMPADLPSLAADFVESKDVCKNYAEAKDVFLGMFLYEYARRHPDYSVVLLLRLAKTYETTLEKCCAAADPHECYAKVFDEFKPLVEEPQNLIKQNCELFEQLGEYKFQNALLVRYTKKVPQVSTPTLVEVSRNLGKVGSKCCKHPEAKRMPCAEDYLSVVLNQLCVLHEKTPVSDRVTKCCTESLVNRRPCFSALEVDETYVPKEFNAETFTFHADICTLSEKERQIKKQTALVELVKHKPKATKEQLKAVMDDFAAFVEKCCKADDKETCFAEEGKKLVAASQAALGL

SMILES	kq HSA-quenching constant (HSA)	ΔΙ/Ιο (%) HSA fluorescence quenching (HSA) [%]	K HSA-binding constant (HSA)	relative HSA-fluorescence emission intensity, % of the initial (HSA) [%]	kq BSA-quenching constant (BSA [1])	ΔΙ/Ιο (%) BSA fluorescence quenching (BSA [1]) [%]	K BSA-binding constant (BSA [1])	relative BSA-fluorescence emission intensity, % of the initial (BSA [1]) [%]	Kd (HSA) [µM]	MIC ([2]; read-out: MIC) [µg/mL]	Kd (BSA [1]) [µM]	MIC [2]	KSV (Stern–Volmer constant), EB-DNA (EB-DNA adduct (CT DNA))	kq (EB-DNA quenching constant) (EB-DNA adduct (CT DNA))	ΔΙ/Ι0 (%) EB-DNA fluorescence quenching (EB-DNA adduct (CT DNA)) [%]	K BSA-binding constant (BSA [3])	kq BSA-quenching constant (BSA [3])	Kb (DNA-binding constant) (CT DNA)
COc1ccc(C=O)c([O-])c1.COc1ccc(C=O)c([O-])c1.[Pd+2] [Complex 5, [Pd(4-OMe-salo)2]]	6.69 (±0.23) × 10^13 M^−1 s^−1	92.2	3.56 (±0.12) × 10^5 M^−1	7.8	2.17 (±0.09) × 10^14 M^−1 s^−1	97.2	9.18 (±0.27) × 10^5 M^−1	2.8										
O=Cc1cc(Cl)cc(Cl)c1[O-].O=Cc1cc(Cl)cc(Cl)c1[O-].[Pd+2] [Complex 3, [Pd(3,5-diCl-salo)2]]	5.00 (±0.12) × 10^13 M^−1 s^−1	90.4	4.10 (±0.17) × 10^5 M^−1	9.6	1.11 (±0.04) × 10^14 M^−1 s^−1	97.2	7.82 (±0.24) × 10^5 M^−1	2.8										
CCN(CC)c1ccc(C=O)c(O)c1 [4-Et2N-saloH, 4-diethylamino-salicylaldehyde, reference compound]	2.10 (±0.22) × 10^13 M^−1 s^−1				1.41 (±0.06) × 10^13 M^−1 s^−1				2.48	> 200	2.4							
CCN(CC)c1ccc(C=O)c([O][Pd][O]c2cc(N(CC)CC)ccc2C=O)c1 [Complex 1, [Pd(4-Et2N-salo)2]]	3.48 (±0.14) × 10^13 M^−1 s^−1	91.8	1.25 (±0.06) × 10^5 M^−1	8.2	5.72 (±0.44) × 10^13 M^−1 s^−1	92.9	1.08 (±0.06) × 10^5 M^−1	7.2										
O=Cc1cc(Br)cc(Br)c1[O][Pd][O]c1c(Br)cc(Br)cc1C=O [Complex 2, [Pd(3,5-diBr-salo)2]]	4.22 (±0.13) × 10^13 M^−1 s^−1	88.8	4.12 (±0.15) × 10^5 M^−1	11.2	2.11 (±0.08) × 10^14 M^−1 s^−1	97.5	1.50 (±0.06) × 10^6 M^−1	2.5				25 μg/mL and 38 μM						
COc1ccc(C=O)c(O)c1 [4-OMe-saloH, 4-methoxy-salicylaldehyde, reference compound]	2.28 (±0.13) × 10^12 M^−1 s^−1								10.3	> 200			5.19 (±0.17) × 10^4 M^−1	2.26 (±0.07) × 10^12 M^−1s^−1	62.5	4.11 (±0.23) × 10^5 M^−1	1.16 (±0.14) × 10^13 M^−1 s^−1	9.25 (±0.12) × 10^5 M^−1
O=Cc1cc(F)ccc1[O-].O=Cc1cc(F)ccc1[O-].[Pd+2] [Complex 4, [Pd(5-F-salo)2]]	1.82 (±0.06) × 10^13 M^−1 s^−1	75.7	1.38 (±0.05) × 10^5 M^−1	24.3	2.24 (±0.14) × 10^13 M^−1 s^−1	85.7	8.79 (±0.13) × 10^4 M^−1	14.3										
O=Cc1cc(F)ccc1O [5-F-saloH, 5-fluoro-salicylaldehyde, reference compound]	1.96 (±0.07) × 10^12 M^−1 s^−1				1.98 (±0.08) × 10^12 M^−1 s^−1				21.5		23.2							
